Key:
FTase = FTase (Homo sapiens, UniProt P49354+P49356); details: cited from earlier work
GGTase I = GGTase I (Homo sapiens, UniProt P49354+P53609); details: cited from earlier work
H-ras = details: cited from earlier work
wild type c-H-ras = assay: Western blot of ras farnesylation in untransformed REF and MR4 cells; assay type: cell-based, rat; details: MR4 cells
Description: (§1) The oncogene-transfected cells used in this study were all derived from early passage rat embryo fibroblast (REF) by transfection with the pEJ plasmid containing the H-ras gene isolated from the EJ bladder carcinoma. This vector was introduced by calcium phosphate DNA transfer into primary REF, either alone or together with the pMC29 vector containing v-myc. One clone containing both the introduced H-ras gene and the v-myc genes is 3.7 (McKenna et al., 1990, Cancer Res. 50:97-102). 4R and 5R cells were obtained as rare transformants after transfection with the pEJ plasmid alone (McKenna et al., 1993, supra). MR4 cells were immortalized by transfection with an expression vector comprising v-myc linked to a neomycin-resistant selectable marker (McKenna et al., 1991, Radiat. Res. 125:283-287). REF-GG cells were obtained by transforming REF cells with a chimeric H-ras(v12) in which the CAAX motif is CVLL. All cell lines were mycoplasma free.
(§2) Cells were lysed in culture dishes with 1 x reducing Laemmli sample buffer. Samples were boiled, sheared and clarified by centrifugation at 14,000 rpm in a microfuge before storage at −20° C. Samples containing equal amounts of protein were separated on a 12% SDS polyacrylamide gel and electrophoretically transferred to nitrocellulose membranes. Membranes were blocked for 1-2 hours in PBS containing 0.1% Tween-20 and 5% powdered milk before antibody addition. Membranes were probed with monoclonal pan-ras antibody AB-4 (Oncogene Science, Uniondale, N.Y.) at a concentration of 0.5 μg/ml, or with monoclonal H-ras antibody LA069 (1:5000 dilution; Quality Biotech, Camden, N.J.). Detection of protein was accomplished using the ECL chemiluminescence kit (Amersham, Arlington Heights, Ill.). Images were digitized using an Arcus II scanner, and figures were assembled using Adobe Photoshop 3.0.

Rap1A = details: cited from earlier work; for inhibition of Rap1A processing: whole cells
REF-GG cells = assay: SF2 by limiting dilution analysis of clonogens; assay type: cell-based, rat; details: 8 μM GGTI-298
Experimental: FIG. 14B comprises two graphs depicting clonogenic survival of REF-GG cells following treatment with GGTI-298 and irradiation. REF-GG cells were plated at 1 to 5 cells per well in microtiter plates in the absence (top panel) or presence (bottom panel) of 8 μM of the geranylgeranyltransferase inhibitor, GGTI-298. Cells were then irradiated with 2 Gray or were mock irradiated. Cells were re-fed after 24 hours with medium that contained no inhibitor, thus diluting the inhibitor to 0.8 μM. These cells were then incubated for two weeks prior to scoring for colony formation. The data are presented as the natural log of the fraction of negative wells. The surviving fraction at 2 Gray was determined from the differences in the slopes obtained by linear regression of analysis of irradiated and unirradiated cells. The surviving fraction at 2 Gray calculated for cells irradiated after GGTI-298 treatment was 0.64. Control cell surviving fraction after 2 Gray was 0.91. The correlation coefficient for linear regression analysis (r^2) was greater than 0.95 in all cases.
Cells were irradiated with the indicated doses of ionizing radiation and were treated with FTI-277 for 24 hours after irradiation (FIG. 14A). […] The shoulders of the survival curves were reduced as were the overall slopes of the survival curves. […]

K-ras = assay: Western blot of K-ras prenylation in SW480 and Panc-1 cells; assay type: cell-based, human; details: 8 μM GGTI-298 alone
Experimental: FIG. 17A is an image of a Western blot depicting inhibition by FTI-277 of K-ras prenylation in human SW480 colon carcinoma cells. SW480 cells were treated with the indicated concentrations of FTI-277 (μM) for 48 hours. Samples were harvested and cell lysates were analyzed by Western blotting using either a H-ras monoclonal antibody (top) or a K-ras monoclonal antibody (bottom). Arrows indicate unfarnesylated ras bands.
FIG. 18A is an image of a Western blot depicting the specific inhibition of K-ras prenylation by combined FTI-277 and GGTI-298 treatment. Log phase cultures of human pancreatic carcinoma cells (Panc-1) and colon carcinoma cells (SW480) were treated with 5 μM FTI and 8 μM GGTI 298 for 48 hours. Cell samples were then harvested and cell lysates were prepared for Western blot analysis using monoclonal antibodies to K-ras and nuclear lamin B. The electrophoretic mobility of the K-ras mutant in SW480 is slower than that of the mutant K-ras in Panc-1 cells.

H-ras^v12 = assay: Western blot of H-ras farnesylation in H-ras transformed REF cells (3.7, 4R, 5R); assay type: cell-based, rat; details: 5R cells, dose of 32 μM
Description: as §1, §2
Transformed REF cells derived from the R5 cell line were treated with 5 μm FTI-277 to establish a time course for the accumulation of unfarnesylated H-ras. Prenylated forms of ras migrate more rapidly than unprenylated ras on SDSpolyacrylamide gels (Gutierrez et al., 1989, EMBO J. 8:1093-1098; Farh et al., 1995, Arch. Biochem. Biophys. 18:113-121). This shift in motility was used to assess the prenylation status of H-ras after farnesyltransferase inhibitor treatment.

H-ras^v12 CVLL = assay: Western blot of prenylation of chimeric H-ras in REF-GG cells; assay type: cell-based, rat; details: 24 hours, preliminary results
Description: as §1
Cells were lysed in culture dishes with 1 x reducing Laemmli sample buffer. Samples were boiled, sheared and clarified by centrifugation at 14,000 rpm in a microfuge before storage at −20° C. Samples containing equal amounts of protein were separated on a 12% SDS polyacrylamide gel and electrophoretically transferred to nitrocellulose membranes. […]

Compound: CC(C)C[C@H](NC(=O)c1ccc(NC[C@@H](N)CS)cc1-c1ccccc1)C(=O)O [GGTI-287]
- increase in potency of inhibition of FTase (FTase; relative to GGTI-279): 20 fold
- increase in potency of inhibition of GGTase I (GGTase I; relative to GGTI-279): 20 fold

Compound: CSCC[C@H](NC(=O)c1ccc(NC[C@@H](N)CS)cc1)C(=O)O [FTI-249]
- FTase inhibition (FTase): potent FTase inhibitor

Compound: CC[C@H](C)[C@@H](CO[C@@H](Cc1ccccc1)C(=O)N[C@@H](CCS(C)(=O)=O)C(=O)O)NC[C@@H](N)CS [L-739,750]
- FTase inhibition (FTase): very potent inhibitors of FTase

Compound: CSCC[C@H](NC(=O)c1ccc(NC[C@@H](N)CS)cc1-c1ccccc1)C(=O)O [FTI-276]
- FTase inhibition (FTase): inhibited Ftase activity

Compound: COCC[C@@H]1CN(C(=O)c2cccc3ccccc23)CCN1C[C@H](N)CS [L-745,631]
- FTase activity in whole cells (H-ras; whole cells): inhibits FTase activity in whole cells
- mode of FTase inhibition (FTase): competitive with respect to H-Ras binding to FTase

Compound: 2-hydroxyfarnesylphosphonic acid
- H-Ras processing (H-ras): inhibits H-Ras processing
- FTase inhibition (FTase): inhibit FTase

Compound: (bz-(0)-His-Tyr-Ser [PD-15169]
- FTase inhibition (FTase): inhibits FTase activity

Compound: CC[C@H](C)[C@@H](CO[C@@H](Cc1ccccc1)C(=O)N[C@@H](CCS(C)(=O)=O)C(=O)OC(C)C)NC[C@@H](N)CS [L-744,832]
- farnesylation of endogenous H-ras (wild type c-H-ras; highest dose used): less susceptible to farnesylation inhibition

Compound: CC(C)C[C@H](NC(=O)c1ccc(NC[C@@H](N)CS)cc1-c1cccc2ccccc12)C(=O)O [GGTI-297]
- FTase inhibition (FTase): inhibitors of GGTase I and FTase
- GGTase I inhibition (GGTase I): inhibitors of GGTase I and FTase
- potency, less potent than GGTI-287 (GGTase I): 10 fold
- selectivity for GGTase I over FTase (GGTase I; in vitro): 5 fold

Compound: farnesylmethyl-hydroxyphosphinylmethyl phosphoric acid
- FTase inhibition (FTase): inhibit FTase

Compound: O=C(Cc1ccncc1)N1CCC(=C2c3ccc(Cl)cc3CCc3cccnc32)CC1 [SCH-44342]
- mode of FTase inhibition (FTase): competitive inhibitor of FTase

Compound: COC(=O)[C@H](CC(C)C)NC(=O)c1ccc(NC[C@@H](N)CS)cc1-c1cccc2ccccc12 [GGTI-298]
- Rap1A protein processing (Rap1A; concentration of 10 μM): completely inhibiting Rap1A protein processing
- inhibition of Rap1A processing (Rap1A): as potent as GGTI-286
- H-ras processing (H-ras; concentration of 10 μM): without affecting H-ras processing
- SF2 (surviving fraction at 2 Gray) (REF-GG cells): 0.64
- prenylation of K-ras (K-ras): no effect on prenylation of K-ras
- FTase inhibition (FTase): inhibitors of GGTase I and FTase
- GGTase I inhibition (GGTase I): inhibitors of GGTase I and FTase

Compound: COC(=O)[C@H](CCSC)NC(=O)[C@H](/C=C\[C@@H](/C=C/[C@@H](N)CS)C(C)C)Cc1ccccc1 [B1086]
- FTase inhibition (FTase): capable of inhibiting FTase

Compound: COC(=O)[C@H](CC(C)C)NC(=O)c1ccc(NC[C@@H](N)CS)cc1-c1ccccc1 [GGTI-286]
- inhibition of farnesylated H-ras^v12 (CVLS) (H-ras^v12): only partially inhibited
- inhibition of Rap1A processing (Rap1A): potent inhibitor of posttranslational processing of Rap1A
- migration of endogenous wild-type c-H-ras (wild type c-H-ras): no effect on the migration of this protein
- lowest dose with effective inhibition of geranylgeranylation of chimeric H-ras^v12 (H-ras^v12 CVLL): 4 µM

Compound: CC[C@H](C)[C@@H](CO[C@@H](Cc1ccccc1)C(=O)N[C@@H](CCS(C)(=O)=O)C(=O)OC)NC[C@@H](N)CS [L-739,749]
- FTase inhibition (FTase): very potent inhibitors of FTase

— patent US20020034725A1, “SENSITIZATION OF CELLS TO RADIATION AND AND CHEMOTHERAPY” (priority 1996, published 2002)
